Measured values reported in patent publication EP2896688A1 (Centre National de la Recherche Scientifique (CNRS), priority 2014, dated 2015).

Key:
[1] = test system: E13.5 rat embryonic pancreases; assay: Number of NGN3-positive cells by immunohistochemistry in cultured embryonic pancreases; assay type: cell-based; details: for number of NGN3-positive endocrine progenitor cells, decrease: 1 day, NAC at 10 µM or CCCP at 1 µM
Protocol: (§1) The embryos were harvested on E13.5. The dorsal pancreatic bud was dissected, as described previously (Attali et al., 2007). For the depletion of the mesenchyme, the digestive tract was incubated with 0.5 mg/ml collagenase A (Roche, Meyaln, France) at 37°c for 30 min, then washed several times with Hank's balanced solution (Invitrogen, Cergy-Pontoise, France) at 4°c, and the epithelium was mechanically separated from the mesenchyme using needles on 0.25% agar, 25% Hank's balanced solution and 75% RPMI gel (Life Technologies, Invitrogen) in a petri dish. Pancreatic rudiments (epithelium with mesenchyme) or epithelia were then cultured at the air-medium interface on Millicell culture plate inserts (Millipore, Molsheim, France) in Petri dishes containing RPMI 1640 (Invitrogen) supplemented with penicillin (100 U/ml), streptomycin ([…]), HEPES (10 mM), l-glutamine (2 mM), nonessential amino acids (1; Invitrogen, Cergy-Pontoise, France) and 10% heat-inactivated calf serum (Hyclone, South Logan, UT, USA) for one to 7 days. […] Glucose (Sigma, Saint-Quentin Fallavier, France) was used at 20 mM/l and the inhibitor of the ERK pathway (U0126, Cell Sinaling Technologies Ozyme, Saint-Quentin, France) at 10 µmol/l. Cultures were maintained at 37°C in humidified 95% air and 5% CO2.
Ad-CMV-GFP (ref 1060, Vector Biolabs, Philadelphia, PA, USA) and Ad-Catalase (ref 1475, Vector Biolabs) adenoviruses were used to infect the embryonic Wistar rat epithelia. Tissues were incubated with viral particles at the multiplicity of infection of 1000 for 4 h at 37°C in RPMI 1640 as described in (Heinis et al.2012). After infection, tissues were washed twice in HBSS and cultured at the air-medium interface.
Tissues were fixed in 10% formalin and processed for immunohistochemistry, as described previously (Attali et al., 2007). The following antibodies were used: mouse anti-insulin (1:2000; Sigma-Aldrich), rabbit anti-PDX1 (1:1,000), rabbit anti-amylase (Sigma-Aldrich, 1:300), mouse anti-E-cadherin (1:100, BD Biosciences, Le Pont de Claix, France), mouse anti-BrdU (1:2, Amersham, Velizy-Villacoublay, France), rabbit anti-NGN3 (1:1000) (Guillemain et al., 2007), rabbit anti-catalase (1:1000, Rockland Immunochemicals, Gilbertsville, PA USA). The fluorescent secondary antibodies were fluorescein-isothiocyanate anti-rabbit and Texas-red anti-mouse antibodies (1:200, Jackson Immunoresearch, Suffolk, England), and Atexa-fluor anti-rabbit antibody (1:400, Biogenex, Fremont, CA, USA). For NGN3, revelation was performed using the vectastain ABC kit (Vector LAB, Peterborough, England). Photographs were taken using a fluorescence microscope (Leitz DMRB; Leica) and digitized using a Hamamatsu (Middlesex, NJ, USA) C5810 cooled 3CCD camera.
(§2) To quantify the number of NGN3-positive cells, NGN3-positive cells were counted on all sections. Statistical significance was determined using Student's t test.

embryonic pancreases = assay: NAC given to pregnant rats in drinking water, analysis of embryonic pancreases; assay type: in vivo, Wistar Rats; details: pregnant rats treated with 10 mM NAC from E13.5
Excerpt: Pregnant Wistar Rats were purchased from the Janvier Breeding center (CERJ Janvier, Le Genest Saint-Ile, France). The animals had free access to food pellets and water. Embryonic day 0.5 (E0.5) was considered the first day postcoïtum. Pregnant female were killed by CO2 asphyxiation according to the guidelines of the French Animal Care Committee.
N-Acetyl cystein (Sigma, Saint-Quentin Fallavier, France) treatment was initiated during embryonic life at E13.5 and given into drinking water to pregnant females.
For NGN3, revelation was performed using the vectastain ABC kit (Vector LAB, Peterborough, England).
To quantify the absolute number of insulin-expressing cells, all sections of each pancreatic rudiment were digitized. On every image, the surface area of insulin staining was quantified using ImageJ as described in (Heinis et al.).
as §2
Female pregnant rats at 13.5 days postcoitus were treated with NAC, and the number of NGN3-positive cells was measured.

[2] = test system: E13.5 rat embryonic pancreases; assay: Beta cell development (insulin staining surface) in cultured embryonic pancreases; assay type: cell-based; details: for insulin staining surface: day 7, NAC at 10 µM or CCCP at 1 µM
Excerpt: The embryos were harvested on E13.5. […] On every image, the surface area of insulin staining was quantified using ImageJ as described in (Heinis et al.).

ERK1/2 = assay: Western blot of ERK1/2 and MEK phosphorylation in cultured embryonic pancreases; assay type: cell-based, rat
Protocol: The embryos were harvested on E13.5. The dorsal pancreatic bud was dissected, as described previously (Attali et al., 2007). […] Glucose (Sigma, Saint-Quentin Fallavier, France) was used at 20 mM/l and the inhibitor of the ERK pathway (U0126, Cell Sinaling Technologies Ozyme, Saint-Quentin, France) at 10 µmol/l.
For Western blotting analysis, cells were lysed in Laemmli buffer. Proteins (20µg) were resolved by SDS/PAGE and electrophoretically transferred onto PVDF membrane (Bio-Rad, Hercules, CA, USA). After blocking with milk, membranes were probed with rat anti-p44/42 MAPK (Erk1/2), mouse anti-Phospho-p44/42 MAPK (Erk1/2) (Thr202/Tyr204), anti-Phospho-MEK (all from Cell Signaling Ozyme, ST Quentin en Yvelines, France) and mouse anti-actin (Sigma-Aldrich).Immunoreactive bands were visualized with the SuperSignal System (Pierce; Fisher Scientific, Illkirch, France).
The Mitogen Activated Protein Kinase (MAPK) ERK1/2 pathway, which was recently shown to be sensitive to ROS production in several cell types (Zhang et al., 2013) was examined. […] As a positive control, pancreases were also treated with 20 mM Glucose, an inducer of the ERK1/2 phosphorylation (Briaud et al., 2003). […] To further characterize ERK1/2-dependent effect of ROS on pancreas development, an ERK1/2 inhibitor was used (U0126). To validate the efficiency of the inhibitor, pancreatic explants were first cultured with glucose, in the presence or in the absence of U0126. Activation of ERK1/2 by glucose was abolished in the presence of U0126 (Figure 8A), confirming the efficiency of U0126.

beta cells = details: concentrations of H2O2 used
Nrf2 = details: pancreases treated with H2O2; data not shown
Protocol: Total RNA was purified using the Rneasy microkit (Qiagen, Courtaboeuf, France). The cDNA was generated using Superscript reagents (Invitrogen), and the real-time PCR was performed on a 7300 real-time PCR system (Applied Biosystem, Invitrogen) with an SYBR Green PCR master mix. The oligonucleotide sequences for RT-PCR are available on request.

early PDX1+ progenitors = details: 1 day of culture, 50 µM H2O2
Protocol: The embryos were harvested on E13.5. The dorsal pancreatic bud was dissected, as described previously (Attali et al., 2007). For the depletion of the mesenchyme, the digestive tract was incubated with 0.5 mg/ml collagenase A (Roche, Meyaln, France) at 37°c for 30 min, then washed several times with Hank's balanced solution (Invitrogen, Cergy-Pontoise, France) at 4°c, and the epithelium was mechanically separated from the mesenchyme using needles on 0.25% agar, 25% Hank's balanced solution and 75% RPMI gel (Life Technologies, Invitrogen) in a petri dish. Pancreatic rudiments (epithelium with mesenchyme) or epithelia were then cultured at the air-medium interface on Millicell culture plate inserts (Millipore, Molsheim, France) in Petri dishes containing RPMI 1640 (Invitrogen) supplemented with penicillin (100 U/ml), streptomycin ([…]), HEPES (10 mM), l-glutamine (2 mM), nonessential amino acids (1; Invitrogen, Cergy-Pontoise, France) and 10% heat-inactivated calf serum (Hyclone, South Logan, UT, USA) for one to 7 days. […]
Tissues were fixed in 10% formalin and processed for immunohistochemistry, as described previously (Attali et al., 2007). […] Photographs were taken using a fluorescence microscope (Leitz DMRB; Leica) and digitized using a Hamamatsu (Middlesex, NJ, USA) C5810 cooled 3CCD camera.
(§3) Statistical significance was determined using Student's t test.

[3] = test system: E13.5 rat embryonic pancreases; details: one day of culture, 50 µM H2O2
Protocol: as §1, with “CO2. […]” for “CO2.”
as §3

[4] = test system: Notch receptors 1 and 2, the Notch target Hes 1, the Notch ligands Jagged 1, Jagged 2, Delta-like 1; details: one day, 50 µM H2O2
Protocol: as §1
Total RNA was purified using the Rneasy microkit (Qiagen, Courtaboeuf, France). […]

Structure (SMILES): CC(=O)N[C@@H](CS)C(=O)O [NAC, N-Acetyl cystein]
- number of NGN3-positive endocrine progenitor cells, decrease [1]: ~2 fold
- reduction of the beta cell mass (embryonic pancreases; at E20.5): 2.5 fold
- number of NGN3-positive cells, decrease compared to controls (embryonic pancreases; embryonic pancreases analyzed at E20.5): 1.6 fold
- insulin staining surface [2]: decrease

Structure (SMILES): N#CC(=C(/N)Sc1ccccc1N)/C(C#N)=C(\N)Sc1ccccc1N [U0126, reference compound]
- H2O2-induced increase of NGN3 expressing cells in the presence of the inhibitor ([1]; H2O2 at 50 µM with U0126): abrogated
- activation of ERK1/2 by glucose in the presence of the inhibitor (ERK1/2; 20 mM Glucose, U0126 10 µmol/l): abolished
- activation of the ERK1/2 pathway by H2O2 in the presence of the inhibitor (ERK1/2; H2O2 50 µM, U0126 10 µmol/l): blunted

Structure (SMILES): N#CC(C#N)=NNc1cccc(Cl)c1 [CCCP, Carbonyl cyanide m-chlorophenyl hydrazone]
- number of NGN3-positive endocrine progenitor cells, decrease [1]: ~2 fold
- insulin staining surface [2]: decrease

Structure (SMILES): OO [H2O2, hydrogen peroxide]
- oxidative stress or damage in the resulting beta cells (beta cells): did not produce detectable oxidative stress or damage
- Nrf2 RNA levels (Nrf2): slight increase
- rate of cell proliferation (BrdU incorporation) vs controls (early PDX1+ progenitors): similar
- number of NGN3 expressing cells ([1]; H2O2 at 50 µM, without U0126): increased
- number of NGN3-positive cells, increase ([1]; day 1, 50 µM H2O2): ~2 fold
- rate of apoptosis vs controls [3]: No difference
- expression of Notch pathway genes vs controls [4]: No difference
- insulin surface, larger than controls ([2]; H2O2 50µM, analyzed seven days later): 2.6 fold
- activation of the ERK1/2 pathway (ERK1/2; 5 or 15 minutes, H2O2 50 µM or 20 mM Glucose): induced
- time after addition at which ERK1/2 activation was observed (ERK1/2; H2O2 50 µM): five
